Measurements taken from US20160375155A1, “Collagen Imaging Compositions” (Collagen Medical, LLC, priority 2015, published 2016).
Where two headings read alike, the source gives them in different places.

Experiments:
[1] = Pharmacokinetics (rat), plasma gadolinium by ICP-MS; type: in vivo, Sprague Dawley rats; details: 1.3 umol/kg iv bolus in 80 mM sucrose, pH 7, 2-90 minutes
Protocol: Compound ID No. 1 was formulated at pH 7 in 80 mM sucrose and administered to Sprague Dawley rats (n=2) at dose of 1.3 umol/kg using a bolus IV injection. Plasma was sampled at 2, 5, 15, 30, and 90 minutes post-injection and analyzed for gadolinium content using ICP-MS (FIG. 15).

[2] = tested on: acute and chronic myocardial infarct (fibrosis); type: in vivo, canine; details: for CNR between infarct and blood: Compound ID No. 1 0.0075 mmol/kg, extracellular gadolinium 0.2 mmol/kg
Text: An experimental protocol was developed to test the ability of Compound ID No. 1 to differentiate acute from chronic myocardial infarction in an in-vivo large animal (canine) model. In this model, early following acute myocardial infarction, pathologic fibrosis has not fully developed within the infarct zone (fibrosis-poor), whereas in chronic MI (˜8 weeks following MI), dense fibrosis fully replaced necrotic myocardium (fibrosis-rich).
In the myocardial fibrosis canine model, a vascular occluder was placed surgically around the left anterior descending coronary artery (LAD) to allow occlusion and reperfusion. Two animals were studied following acute MI and two additional animals were studied both following acute MI, and chronically at 8 weeks. The LAD vessel was completely occluded for 70-90 minutes and then released to allow reperfusion. The chest was sutured closed, and the animal was allowed to recover. Imaging was performed on a 3 T clinical scanner in an acute (<1 week, minimal fibrosis expected in acute necrosis) and chronic (8 weeks, healing complete, necrotic myocardium replaced by dense collagenous scar) time point after infarction. For each time point, the animals undergo 2 scans separated by 48 hours with conventional gadolinium contrast (0.2 mmol/kg GdDTPA) and Compound ID No. 1 (0.0075 mmol/kg).
Imaging was performed on a 3 T clinical scanner (Siemens Verio). Breath holding was achieved by temporarily turning off the animal ventilator, and all images were ECG gated. Standard short and long axis cine imaging was performed throughout the left ventricle to identify left ventricular function and regional wall motion abnormalities. Delayed enhancement imaging (segmented 2D inversion recovery gradient echo) was performed prior to and serially following Compound ID No. 1 administration. Two strategies were employed: (1) a fixed inversion time was chosen to null pre-contrast myocardium (TI˜650 ms), and (2) a variable inversion time set to null post-contrast myocardium as is performed in traditional delayed enhancement imaging.
After imaging, animals were euthanized and post mortem analysis of myocardium was performed. Tissue was assessed grossly by histopathologic staining with triphenyltetrazolium chloride for myocardial infarction, and microscopically with Masson's trichrome staining for fibrosis. Additionally quantitative tissue analysis for hydroxyproline was used to measure total collagen content in tissue and compared to tissue gadolinium concentration by inductively coupled plasma-mass spectrometry. MR data was analyzed quantitatively for conspicuity of infarction and image quality as well as contrast to noise ratio (CNR) for infarct-normal myocardium and infarct-blood.

[3] = tested on: myocardial collagen; details: rat MI model, healthy and infarcted heart
Protocol: Myocardial infarction was induced in Sprague Dawley rats by occlusion of the left anterior descending coronary artery followed by reperfusion. The rats were anesthetized with an intraperitoneal (i.p.) injection of 100 μg pentobarbital sodium per gram body weight and a thorocotamy was performed. The pericardium was removed and the left anterior artery was sutured with a 7.0 silk suture for 60 minutes after which reperfusion was established.
Animals were sacrificed at 60 minutes post-injection and the heart removed and sectioned for analysis.
The slope for this correlation is a measure of efficacy.

CC(C)C[C@H](NC(=O)[C@@H]1CSSC[C@H](NC(=O)[C@H](Cc2c[nH]cn2)NC(=O)[C@H](Cc2c[nH]c3ccccc23)NC(=O)[C@H](CCCCNC(=O)CC[C@H](C(=O)O)N2CCN(CC(=O)O)CCN(CC(=O)O)CCN(CC(=O)O)CC2)NC(=O)CNC(=O)CC[C@H](C(=O)O)N2CCN(CC(=O)O)CCN(CC(=O)O)CCN(CC(=O)O)CC2)C(=O)N[C@@H]([C@@H](C)O)C(=O)N[C@@H]([C@@H](C)O)C(=O)N[C@@H](CCCCNC(=O)CC[C@H](C(=O)O)N2CCN(CC(=O)O)CCN(CC(=O)O)CCN(CC(=O)O)CC2)C(=O)N[C@@H](Cc2ccccc2)C(=O)N2CCC[C@H]2C(=O)N[C@@H](Cc2c[nH]cn2)C(=O)N[C@@H](Cc2c[nH]cn2)C(=O)N[C@@H](Cc2ccc(O)cc2)C(=O)N1)C(=O)N[C@@H](Cc1ccc(O)cc1)C(=O)N[C@@H](Cc1ccc(-c2ccccc2)cc1)C(N)=O [Compound ID No. 1]
pharmacokinetic profile (plasma gadolinium) [1]: rapid initial blood clearance
CNR between infarct and blood ([2]; acute MI): 19±7.4
T1 of infarct vs normal myocardium ([2]; acute myocardial infarction, FIG. 24a): longer than normal (N1) myocardium
MR image enhancement of infarct over time ([2]; acute myocardial infarction, FIG. 25a): lack of contrast early, equilibration with normal myocardium at 30 minutes, and enhancement >1 hr
relationship of compound concentration (gadolinium) vs. collagen concentration (hydroxyproline) ([2]; canine heart tissue, FIG. 26): linear relationship
CNR between infarct and blood ([2]; chronic MI (8 weeks)): 11±2
extent of the enhanced area ([2]; chronic infarct, compared with Gd delayed enhancement): matched that of Gd delayed enhancement
T1 of infarct vs normal myocardium ([2]; chronic myocardial infarction, FIG. 24b): lower T1 than normal myocardium throughout the entire experiment
T1 of infarct vs normal myocardium ([2]; chronic myocardial infarction, FIG. 24b, listed as Compound ID. No. 1): early and persistent lowering of T1 values
calculated slope, hydroxyproline vs. gadolinium concentration [3]: 8498
